Laboratory results taken from BindingDB's records for doi:10.1021/acs.jmedchem.0c00774 (Istituto Italiano Di Tecnologia, 2020).

Target: Prostaglandin G/H synthase 1 (Homo sapiens, UniProt P23219)
Assay: Inhibition of human COX1

Sequence of Prostaglandin G/H synthase 1 (P23219 whole entry): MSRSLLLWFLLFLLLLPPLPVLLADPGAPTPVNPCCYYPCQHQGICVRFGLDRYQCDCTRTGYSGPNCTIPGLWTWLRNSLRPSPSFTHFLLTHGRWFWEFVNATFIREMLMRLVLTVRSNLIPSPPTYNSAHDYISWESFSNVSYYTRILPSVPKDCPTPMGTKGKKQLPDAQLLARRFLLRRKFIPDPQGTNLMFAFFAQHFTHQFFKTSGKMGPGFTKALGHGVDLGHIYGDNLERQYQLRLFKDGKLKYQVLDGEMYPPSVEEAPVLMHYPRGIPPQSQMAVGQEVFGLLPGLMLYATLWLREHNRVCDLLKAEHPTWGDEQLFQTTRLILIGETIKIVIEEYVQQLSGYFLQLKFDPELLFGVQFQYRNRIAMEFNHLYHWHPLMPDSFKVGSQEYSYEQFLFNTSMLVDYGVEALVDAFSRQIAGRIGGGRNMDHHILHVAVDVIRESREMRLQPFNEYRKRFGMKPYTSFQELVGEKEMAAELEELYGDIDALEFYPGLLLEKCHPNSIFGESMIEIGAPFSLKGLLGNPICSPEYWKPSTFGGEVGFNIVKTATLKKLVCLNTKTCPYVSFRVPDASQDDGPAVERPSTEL

- IC50: 4 µM
SMILES: CN(C)c1ccc(Nc2nc(-c3ccncc3)nc3c2CC(N)CC3)cc1 (stereo unspecified)
